Experimental findings from US4363805A, “Aminodesoxy-1.4;3.6-dianhydrohexitol nitrates and pharmaceutical composition” (Firma Willmar Schwabe, priority 1980, dated 1982) are described below.

Series [1] can be described thus: Acute toxicity, intravenous, mice. Type of series: in vivo. As to conditions: mouse, in vivo; intravenous, within 24 hours; read-out: Evaluated LD50-range.
For the next series, the system named is female NMRI-albino mice. In words: Acute toxicity, intravenous, mice. The following applies: within 24 hours. Type of series: in vivo.
The test system of another series is narcotised guinea pigs. In words: Blood pressure experiments on guinea pigs, i.v. Format: in vivo, guinea pig. The following applies: for blood pressure before: before administration.
Series [2] concerns isolated guinea pig hearts. Description: Experiments on Langendorff hearts (coronary flowthrough, inotropism, frequency). The following applies: Cavia porcellus, read-out: flowthrough, percentage change with regard to the initial value.
Method: After reaching the stationary state in the 30th minute, the hearts were each perfused with 50 ml. tyrode solution with a content of test substance of, in each case, 25 μg./ml. Each test substance was tested on 3-6 hearts.
In each case, there was measured the inotropism, the flowthrough and the frequency, whereby the values given in Table I are average values of the percentage changes in comparison with the initial values.
The test system of a further series is mongrel cats. Description: Inotropic and heart-circulatory effectiveness on narcotised cats, intravenous. The following applies: 6 animals. Format: in vivo, cat.
Where [3] appears, read: 0.25 mg/kg i.v., before administration.

Some results are limits rather than exact numbers.

As for `N[C@@H]1CO[C@H]2[C@@H]1OC[C@@H]2O[N+](=O)[O-]` [2 b], the LD50 at 24 h in series [1] was above 200 mg/kg. In addition, the Frequency of death in the series on female NMRI-albino mice (200 mg/kg i.v.) is on record as 0/3. In the series with narcotised guinea pigs (0.25 mg/kg i.v.), the blood pressure after stood at 50.25 ± 8.19 mm.Hg, the “blood pressure Δ” value is -5.75 mm.Hg and the blood pressure before is given as 56.00 ± 7.91 mm.Hg. Besides, in the series on narcotised guinea pigs (1.00 mg/kg i.v.), the blood pressure after stood at 41.50 ± 4.66 mm.Hg and the “blood pressure Δ” value is on record as -14.25 mm.Hg. Also, in the series on narcotised guinea pigs (2.50 mg/kg i.v.), the blood pressure after is reported as 31.75 ± 3.09 mm.Hg and the “blood pressure Δ” value was -19.50 mm.Hg. The activation at 25 µg/mL in series [2] was 25.9%.

For the compound `O=[N+]([O-])O[C@H]1CO[C@H]2[C@@H]1OC[C@@H]2N1CCCC1` [14 b], the LD50 at 24 h in series [1] is at least 200 mg/kg. In addition, the Frequency of death in the series with female NMRI-albino mice (200 mg/kg i.v.) is listed as 1/3. Besides, in the series on narcotised guinea pigs (0.25 mg/kg i.v.), the blood pressure after worked out at 65.75 ± 0.75 mm.Hg, the “blood pressure Δ” value is -5.50 mm.Hg and the blood pressure before stood at 71.25 ± 0.63 mm.Hg. Further, in the series on narcotised guinea pigs (1.00 mg/kg i.v.), the blood pressure after is recorded as 56.25 ± 2.17 mm.Hg and the “blood pressure Δ” value is reported as -14.00 mm.Hg. Besides, in the series with narcotised guinea pigs (2.50 mg/kg i.v.), the blood pressure after came to 49.25 ± 3.94 mm.Hg and the “blood pressure Δ” value is -18.50 mm.Hg. Besides, the activation at 25 µg/mL in series [2] is 25.4%.

`O=[N+]([O-])O[C@H]1CO[C@H]2[C@@H]1OC[C@@H]2N1CCCCC1` [15 b]: in series [1], the LD50 at 24 h lay within 50 to 100 mg/kg. Besides, the Frequency of death is 0/3 with female NMRI-albino mice (50 mg/kg i.v.), 2/3 in the series on female NMRI-albino mice (100 mg/kg i.v.) and 6/6 in the series on female NMRI-albino mice (200 mg/kg i.v.). In addition, the values for the blood pressure after in the series on narcotised guinea pigs (0.25 mg/kg i.v.), in the series with narcotised guinea pigs (1.00 mg/kg i.v.) and with narcotised guinea pigs (2.50 mg/kg i.v.) were 63.00 ± 1.83 mm.Hg, 53.50 ± 1.71 mm.Hg and 49.00 ± 2.48 mm.Hg, respectively. For the same compound, the “blood pressure Δ” value is -9.00 mm.Hg in the series with narcotised guinea pigs (0.25 mg/kg i.v.), -17.75 mm.Hg in the series on narcotised guinea pigs (1.00 mg/kg i.v.) and -23.00 mm.Hg in the series on narcotised guinea pigs (2.50 mg/kg i.v.). The compound further came in with a blood pressure before in the series on narcotised guinea pigs (0.25 mg/kg i.v.) of 72.00 ± 2.12 mm.Hg. Also, in series [2], the activation at 25 µg/mL was 34%.

Consider `O=[N+]([O-])O[C@H]1CO[C@H]2[C@@H]1OC[C@@H]2N1CCOCC1` [16 b], for which the LD50 at 24 h in series [1] is above 200 mg/kg. Besides, in the series with female NMRI-albino mice (200 mg/kg i.v.), the Frequency of death is on record as 0/3. Moreover, the blood pressure after turned out to be 59.50 ± 5.63 mm.Hg in the series on narcotised guinea pigs (0.25 mg/kg i.v.), 48.25 ± 4.80 mm.Hg with narcotised guinea pigs (1.00 mg/kg i.v.) and 43.25 ± 4.91 mm.Hg in the series on narcotised guinea pigs (2.50 mg/kg i.v.). Also, the “blood pressure Δ” value in the series on narcotised guinea pigs (0.25 mg/kg i.v.) is -9.25 mm.Hg; in the series on narcotised guinea pigs (1.00 mg/kg i.v.) it was -19.75 mm.Hg; in the series with narcotised guinea pigs (2.50 mg/kg i.v.) it was -23.50 mm.Hg. The same compound had a blood pressure before in the series on narcotised guinea pigs (0.25 mg/kg i.v.) of 68.75 ± 3.07 mm.Hg. Moreover, in series [2], the activation at 25 µg/mL is 14.7%.

Turning to `CN1CCN([C@H]2CO[C@H]3[C@@H]2OC[C@@H]3O[N+](=O)[O-])CC1` [17 b], the LD50 at 24 h in series [1] is above 200 mg/kg. Further, the Frequency of death in the series with female NMRI-albino mice (200 mg/kg i.v.) is listed as 0/3. Besides, in the series on narcotised guinea pigs (0.25 mg/kg i.v.), the blood pressure after is reported as 59.00 ± 2.27 mm.Hg, the “blood pressure Δ” value is given as -4.50 mm.Hg and the blood pressure before is 63.50 ± 3.77 mm.Hg. In the series on narcotised guinea pigs (1.00 mg/kg i.v.), the blood pressure after turned out to be 46.25 ± 3.07 mm.Hg and the “blood pressure Δ” value is reported as -17.75 mm.Hg. Moreover, in the series with narcotised guinea pigs (2.50 mg/kg i.v.), the blood pressure after is given as 38.25 ± 4.55 mm.Hg and the “blood pressure Δ” value is -23.50 mm.Hg. In series [2], the activation at 25 µg/mL was 25.1%.

For `CN(Cc1ccccc1)[C@H]1CO[C@H]2[C@@H]1OC[C@@H]2O[N+](=O)[O-]` [Example 19, 5-(N-Benzyl-N-methylamino)-5-desoxy-1.4;3.6-dianhydro-L-iditol 2-nitrate], the median lethal dose (LD50) at 24 h in series [1] lay in the range of 100 to 200 mg/kg. For the same compound, the Frequency of death in the series on female NMRI-albino mice (100 mg/kg i.v.) is listed as 0/3; in the series on female NMRI-albino mice (200 mg/kg i.v.), 6/6. For the same compound, the activation at 25 µg/mL in series [2] was 100%.

For `CN(CCCc1ccccc1)[C@H]1CO[C@H]2[C@@H]1OC[C@@H]2O[N+](=O)[O-]` [Example 21, 5-[N-Methyl-N-(3-phenylpropyl)-amino]-5-desoxy-1.4;3.6-dianhydro-L-iditol 2-nitrate], the LD50 at 24 h in series [1] is 50 to 100 mg/kg. In addition, the Frequency of death in the series on female NMRI-albino mice (50 mg/kg i.v.) was 0/3; in the series on female NMRI-albino mice (100 mg/kg i.v.), 3/3; in the series on female NMRI-albino mice (200 mg/kg i.v.), 6/6. In addition, the activation at 25 µg/mL in series [2] came to 117%.

Take `O=[N+]([O-])O[C@H]1CO[C@H]2[C@@H]1OC[C@@H]2NCc1ccccc1` [Example 25, 5-Benzylamino-5-desoxy-1.4;3.6-dianhydro-L-iditol 2-nitrate]: in series [1], the LD50 at 24 h lay within 100 to 200 mg/kg. For the same compound, the Frequency of death with female NMRI-albino mice (100 mg/kg i.v.) was 0/3; in the series on female NMRI-albino mice (200 mg/kg i.v.), 6/6. Besides, the activation at 25 µg/mL in series [2] was 47.8%.

`O=[N+]([O-])O[C@H]1CO[C@H]2[C@@H]1OC[C@@H]2NCCCc1ccccc1` [Example 28, 5-(3-Phenylpropylamino)-5-desoxy-1.4;3.6-dianhydro-L-iditol 2-nitrate]: in series [1], the LD50 at 24 h was 50 to 100 mg/kg. Besides, the Frequency of death in the series on female NMRI-albino mice (50 mg/kg i.v.) is reported as 0/10. Further, the Frequency of death in the series with female NMRI-albino mice (100 mg/kg i.v.) was 5/6. The Frequency of death with female NMRI-albino mice (200 mg/kg i.v.) is recorded as 3/3. Moreover, in the series on mongrel cats (setting [3]), the blood pressure before amounted to 101.3 mm.Hg, the “dp/dt (inotropism) before” value is 7667 mm.Hg/sec and the heart frequency before was 225.0 min⁻¹. Besides, in the series with mongrel cats (0.25 mg/kg i.v.), the “blood pressure WD” value was 3.1 min, the blood pressure after came out at 81.8 mm.Hg, the “blood pressure Δ” value is -19.5 mm.Hg and the “dp/dt (inotropism) after” value turned out to be 7400 mm.Hg/sec. Moreover, in the series with mongrel cats (0.25 mg/kg i.v.), the “dp/dt (inotropism) Δ” value was -267 mm.Hg/sec, the “dp/dt WD” value worked out at 2.7 min, the heart frequency after is 223.3 min⁻¹ and the “heart frequency Δ” value was -1.7 min⁻¹. For the same compound, in the series on mongrel cats (0.50 mg/kg i.v.), the “blood pressure WD” value came out at 5.8 min, the blood pressure after amounted to 79.0 mm.Hg, the “blood pressure Δ” value is on record as -25.9 mm.Hg and the “dp/dt (inotropism) after” value is 6567 mm.Hg/sec. Further, in the series on mongrel cats (0.50 mg/kg i.v.), the “dp/dt (inotropism) Δ” value was -1000 mm.Hg/sec, the “dp/dt WD” value was 10.7 min, the heart frequency after was 226.3 min⁻¹ and the “heart frequency Δ” value was -1.7 min⁻¹. Besides, in the series on mongrel cats (1.00 mg/kg i.v.), the “blood pressure WD” value is listed as 12.2 min, the blood pressure after was 70.0 mm.Hg, the “blood pressure Δ” value is reported as -39.7 mm.Hg and the “dp/dt (inotropism) after” value was 5533 mm.Hg/sec. In the series on mongrel cats (1.00 mg/kg i.v.), the “dp/dt (inotropism) Δ” value is listed as -1534 mm.Hg/sec, the “dp/dt WD” value was found to be 23.0 min, the heart frequency after came to 227.0 min⁻¹ and the “heart frequency Δ” value was -1.0 min⁻¹. In the series with mongrel cats (2.50 mg/kg i.v.), the “blood pressure WD” value is above 10 min, the blood pressure after was found to be 53.2 mm.Hg, the “blood pressure Δ” value was -50.3 mm.Hg and the “dp/dt (inotropism) after” value amounted to 3600 mm.Hg/sec. Moreover, in the series on mongrel cats (2.50 mg/kg i.v.), the “dp/dt (inotropism) Δ” value was -3067 mm.Hg/sec, the “dp/dt WD” value is recorded as above 10 min, the heart frequency after worked out at 206.3 min⁻¹ and the “heart frequency Δ” value was -22.0 min⁻¹. For the same compound, the activation at 25 µg/mL in series [2] came to 68.1%.

Consider `O=[N+]([O-])O[C@H]1CO[C@H]2[C@@H]1OC[C@@H]2NCCOc1ccccc1` [Example 35, 5-(2-Phenoxyethylamino)-5-desoxy-1.4;3.6-dianhydro-L-iditol 2-nitrate], for which, in series [1], the LD50 at 24 h was at least 100 mg/kg. Moreover, the figures for the Frequency of death in the series on female NMRI-albino mice (100 mg/kg i.v.) and in the series with female NMRI-albino mice (200 mg/kg i.v.) were 2/6 and 3/3, respectively. The activation at 25 µg/mL in series [2] turned out to be 34%.

On to `Cc1cccc(OCC(O)CN[C@H]2CO[C@H]3[C@@H]2OC[C@@H]3O[N+](=O)[O-])c1` (stereo partly drawn) [Example 51, 5-[2-Hydroxy-3-(3-tolyloxy)-propylamino]-5-desoxy-1.4;3.6-dianhydro-L-iditol 2-nitrate], for which the LD50 at 24 h in series [1] was 50 to 100 mg/kg. Also, the Frequency of death in the series with female NMRI-albino mice (50 mg/kg i.v.) is 0/3; in the series with female NMRI-albino mice (100 mg/kg i.v.) it was 3/3; in the series with female NMRI-albino mice (200 mg/kg i.v.), 6/6. Besides, the blood pressure after with narcotised guinea pigs (0.25 mg/kg i.v.) was 63.00 ± 2.35 mm.Hg; in the series with narcotised guinea pigs (1.00 mg/kg i.v.), 55.75 ± 2.36 mm.Hg; in the series on narcotised guinea pigs (2.50 mg/kg i.v.) it was 42.25 ± 1.32 mm.Hg. Besides, the “blood pressure Δ” value is reported as -3.75 mm.Hg in the series with narcotised guinea pigs (0.25 mg/kg i.v.), -10.25 mm.Hg in the series on narcotised guinea pigs (1.00 mg/kg i.v.) and -23.50 mm.Hg in the series on narcotised guinea pigs (2.50 mg/kg i.v.). This compound registered a blood pressure before in the series on narcotised guinea pigs (0.25 mg/kg i.v.) of 66.75 ± 2.49 mm.Hg. The activation at 25 µg/mL in series [2] was 92.4%.
